Source: PubChem BioAssay AID248 (DTP/NCI, 2004)
Values joined by “and” are separate entries in the source; they are usually repeats but may differ in a detail not shown here. Identical values can stand only once. Inconclusive results and toxic doses are left out. Rule as the data show it: active = T/C of 150% or more; inactive = T/C below 125%.

Test system: L1210 leukemia ip in BDF1 mice, survival T/C
Assay: NCI In Vivo Anticancer Drug Screen. Data for tumor model L1210 Leukemia (intraperitoneal) in B6D2F1 (BDF1) mice
Conditions: endpoint: mean survival time, higher = longer survival
How it was run: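 Ratio derived from survival: compound-dosed mice over vehicle-dosed mice, all bearing a transplantable tumor.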

[1] = dose: 100.0 mg/kg/injection, schedule: Q04DX003 (ip), vehicle: Klucel (hydroxypropylcellulose) (HPC)
[2] = dose: 200.0 mg/kg/injection, schedule: Q04DX003 (ip), vehicle: Klucel (hydroxypropylcellulose) (HPC)
[3] = dose: 400.0 mg/kg/injection, schedule: Q04DX003 (ip), vehicle: Klucel (hydroxypropylcellulose) (HPC)
[4] = dose: 50.0 mg/kg/injection, schedule: Q01DX001 (ip), vehicle: carboxymethylcellulose (CMC)
[5] = dose: 100.0 mg/kg/injection, schedule: Q01DX001 (ip), vehicle: carboxymethylcellulose (CMC)
[6] = dose: 200.0 mg/kg/injection, schedule: Q01DX001 (ip), vehicle: carboxymethylcellulose (CMC)
[7] = dose: 400.0 mg/kg/injection, schedule: Q01DX001 (ip), vehicle: carboxymethylcellulose (CMC)
[8] = dose: 100.0 mg/kg/injection, schedule: Q01DX001 (ip), vehicle: Klucel (hydroxypropylcellulose) (HPC)
[9] = dose: 100.0 mg/kg/injection, schedule: Q01DX009 (ip), vehicle: Klucel (hydroxypropylcellulose) (HPC)
[10] = dose: 200.0 mg/kg/injection, schedule: Q01DX001 (ip), vehicle: Klucel (hydroxypropylcellulose) (HPC)
[11] = dose: 200.0 mg/kg/injection, schedule: Q01DX009 (ip), vehicle: Klucel (hydroxypropylcellulose) (HPC)
[12] = dose: 400.0 mg/kg/injection, schedule: Q01DX001 (ip), vehicle: Klucel (hydroxypropylcellulose) (HPC)
[13] = dose: 100.0 mg/kg/injection, schedule: Q04DX002 (ip), vehicle: saline with Tween-80
[14] = dose: 200.0 mg/kg/injection, schedule: Q04DX002 (ip), vehicle: saline with Tween-80
[15] = dose: 400.0 mg/kg/injection, schedule: Q04DX002 (ip), vehicle: saline with Tween-80
[16] = dose: 100.0 mg/kg/injection, schedule: Q01DX001 (ip), vehicle: saline with Tween-80
[17] = dose: 100.0 mg/kg/injection, schedule: Q01DX009 (ip), vehicle: saline with Tween-80
[18] = dose: 200.0 mg/kg/injection, schedule: Q01DX001 (ip), vehicle: saline with Tween-80
[19] = dose: 200.0 mg/kg/injection, schedule: Q01DX009 (ip), vehicle: saline with Tween-80
[20] = dose: 400.0 mg/kg/injection, schedule: Q01DX001 (ip), vehicle: saline with Tween-80
[21] = dose: 400.0 mg/kg/injection, schedule: Q01DX009 (ip), vehicle: saline with Tween-80

Measured: T/C

CC1CC([O-])=N/[N+]1=C/c1ccc(N(C)C)cc1 (centres undefined)
inactive: dose: 80.0 mg/kg/injection, schedule: Q01DX001 (ip), vehicle: saline with Tween-80 98 % of control | dose: 160.0 mg/kg/injection, schedule: Q01DX001 (ip), vehicle: saline with Tween-80 98 % of control | dose: 320.0 mg/kg/injection, schedule: Q01DX001 (ip), vehicle: saline with Tween-80 92 % of control

C=CC(=O)[O][Pb]([CH2]C)([CH2]C)[CH2]C
inactive: dose: 12.5 mg/kg/injection, schedule: Q04DX002 (ip), vehicle: Klucel (hydroxypropylcellulose) (HPC) 86 % of control

CCOC(=O)c1c[nH]c(=O)n(-c2ccccc2)c1=O
inactive: [1] 109 % of control | [2] 92 % of control | [3] 106 % of control

C#CCCCc1ccccc1
inactive: [4] 102 % of control | [5] 98 % of control | [6] 96 % of control | [7] 96 % of control

O=C(NCCCl)NC1c2cc(Cl)ccc2-c2c(Cl)cc(Cl)cc21 (centres undefined)
inactive: [8] 92 % of control | [9] 87 % of control | [1] 94 % of control | [10] 96 % of control | [11] 90 % of control | [2] 98 % of control | [12] 92 % of control | dose: 400.0 mg/kg/injection, schedule: Q01DX009 (ip), vehicle: Klucel (hydroxypropylcellulose) (HPC) 95 % of control | [3] 98 % of control

Nc1nc(N)c(N=Nc2c(Br)cc(S(N)(=O)=O)cc2Br)c(=O)[nH]1
inactive: dose: 100.0 mg/kg/injection, schedule: Q01DX001 (ip), vehicle: saline 100 % of control | dose: 200.0 mg/kg/injection, schedule: Q01DX001 (ip), vehicle: saline 105 % of control | dose: 400.0 mg/kg/injection, schedule: Q01DX001 (ip), vehicle: saline 102 % of control

CCOC(=O)C(Cc1ccc(OCc2ccccc2)c(OCc2ccccc2)c1)(NC=O)C(=O)OCC
inactive: dose: 100.0 mg/kg/injection, schedule: Q01DX001 (ip), vehicle: other 94 % of control | dose: 200.0 mg/kg/injection, schedule: Q01DX001 (ip), vehicle: other 92 % of control | dose: 400.0 mg/kg/injection, schedule: Q01DX001 (ip), vehicle: other 87 % of control

N#CC1SCCCS1
inactive: dose: 50.0 mg/kg/injection, schedule: Q01DX001 (ip), vehicle: Klucel (hydroxypropylcellulose) (HPC) 104 % of control | [8] 105 % of control | [13] 101 % of control | [10] 96 % of control | [14] 108 % of control | [15] 108 % of control

CC(=O)Oc1ccccc1C1OC(=O)c2ccccc2N1C(C)=O (centres undefined)
inactive: [16] 106 % of control | [17] 101 % of control and 103 % of control | [13] 105 % of control and 87 % of control | [18] 104 % of control | [19] 93 % of control and 102 % of control | [14] 96 % of control and 97 % of control | [20] 103 % of control | [21] 93 % of control | [15] 94 % of control and 105 % of control

CC(C)CC(B1OCCO1)(C1CCCCC1)C1CCCCC1
inactive: [17] 107 % of control | dose: 100.0 mg/kg/injection, schedule: Q04DX003 (ip), vehicle: other 105 % of control | [19] 93 % of control | dose: 200.0 mg/kg/injection, schedule: Q04DX003 (ip), vehicle: other 104 % of control | dose: 400.0 mg/kg/injection, schedule: Q04DX003 (ip), vehicle: other 110 % of control

CCSCC1C=CC(n2cnc3c(N)ncnc32)O1 (centres undefined)
inactive: [4] 109 % of control | [5] 109 % of control | [6] 98 % of control | [7] 109 % of control

CCOC(=O)c1c(C)nc(C)c(C(=O)OCC)c1C
inactive: [16] 101 % of control | [18] 99 % of control | [20] 95 % of control

NC(=O)c1ccccc1NC(=O)CCCOc1ccccc1
inactive: [8] 100 % of control | [1] 94 % of control | [10] 93 % of control | [2] 97 % of control | [12] 96 % of control

c1ccc(-c2cc(-c3ccccc3)n(-c3ccccc3)c2)cc1
inactive: [16] 87 % of control | [18] 89 % of control

C[N+](C)(C)CCOC(=O)c1cc(CBr)cc(CBr)c1
inactive: dose: 25.0 mg/kg/injection, schedule: Q01DX009 (ip), vehicle: saline 101 % of control | dose: 25.0 mg/kg/injection, schedule: Q04DX003 (ip), vehicle: saline 98 % of control | dose: 50.0 mg/kg/injection, schedule: Q01DX009 (ip), vehicle: saline 95 % of control | dose: 50.0 mg/kg/injection, schedule: Q04DX003 (ip), vehicle: saline 100 % of control | dose: 100.0 mg/kg/injection, schedule: Q04DX003 (ip), vehicle: saline 102 % of control

Cc1cc(N(C)C)c(C(C)C)cc1O (tested in a mixture with another compound)
inactive: dose: 3.2 micrograms/kg/injection, schedule: Q01DX009 (ip), vehicle: saline 95 % of control | dose: 6.3 micrograms/kg/injection, schedule: Q01DX009 (ip), vehicle: saline 90 % of control | dose: 12.5 micrograms/kg/injection, schedule: Q01DX009 (ip), vehicle: saline 105 % of control

Nc1ccc(/C=C2\C=Cc3ccccc32)cc1
inactive: dose: 8.5 mg/kg/injection, schedule: Q01DX009 (ip), vehicle: saline 98 % of control | dose: 17.0 mg/kg/injection, schedule: Q01DX001 (ip), vehicle: acetone 98 % of control | dose: 17.0 mg/kg/injection, schedule: Q01DX009 (ip), vehicle: saline 97 % of control | dose: 35.0 mg/kg/injection, schedule: Q01DX001 (ip), vehicle: acetone 105 % of control | dose: 35.0 mg/kg/injection, schedule: Q01DX009 (ip), vehicle: saline 101 % of control | dose: 100.0 mg/kg/injection, schedule: Q01DX001 (ip), vehicle: olive oil, sesame oil, peanut oil 94 % of control

O=C(NCCCBr)Nc1cccc2c1CCCC2
inactive: dose: 50.0 mg/kg/injection, schedule: Q04DX003 (ip), vehicle: saline with Tween-80 95 % of control | [17] 100 % of control | dose: 100.0 mg/kg/injection, schedule: Q04DX003 (ip), vehicle: saline with Tween-80 93 % of control | [19] 97 % of control | dose: 200.0 mg/kg/injection, schedule: Q04DX003 (ip), vehicle: saline with Tween-80 101 % of control | [21] 96 % of control | dose: 400.0 mg/kg/injection, schedule: Q04DX003 (ip), vehicle: saline with Tween-80 95 % of control

S=P(c1ccccc1)(c1ccccc1)c1ccccc1
inactive: dose: 50.0 mg/kg/injection, schedule: Q04DX002 (ip), vehicle: saline 96 % of control | dose: 100.0 mg/kg/injection, schedule: Q04DX002 (ip), vehicle: saline 93 % of control | dose: 200.0 mg/kg/injection, schedule: Q04DX002 (ip), vehicle: saline 96 % of control

O=[N+]([O-])c1ccc(Cc2ccccn2)cc1
inactive: [8] 104 % of control | [9] 95 % of control | [10] 108 % of control | [11] 101 % of control | [12] 112 % of control
